Measurements published in patent publication US9790211B2, “5-amino-quinoline-8-carboxamide derivatives as 5-HT4 receptor agonists” (SUVEN LIFE SCIENCES LIMITED, priority 2013, dated 2017).
Like-named read-outs stand apart in the source and are kept apart here.

Molecular target: T1, recombinant human 5-HT4 receptor (Homo sapiens, UniProt Q13639)
T1 construct: expressed in transfected cells
Assay: Determination of EC50 values for 5-HT4 receptor (CHO cells, pCRE-Luc reporter)
Assay type: cell-based
Settings: for EC50: 4 hours incubation; for Emax: CHO
Description: Determination of EC50 Values for 5-HT4 Receptor
A stable CHO cell line expressing recombinant human 5-HT4 receptor and pCRE-Luc reporter system was used for cell-based assay. The assay offers a non-radioactive based approach to determine binding of a compound to GPCRs. In this specific assay, the level of intracellular cyclic AMP, which is modulated by activation, or inhibition of the receptor is measured. The recombinant cells harbor luciferase reporter gene under the control of cAMP response element.
The above cells were grown in 96 well clear bottom white plates in Hams F12 medium containing 10% fetal bovine serum (FBS). Prior to the addition of compounds or standard agonist, cells were serum starved overnight. Increasing concentrations of test compounds were added in OptiMEM medium to the cells. The incubation was continued at 37° C. in CO2 incubator for 4 hours. Medium was removed and cells were washed with phosphate buffered saline. The cells were lysed and luciferase activity was measured in a Luminometer. Luminescence units were plotted against the compound concentrations using Graphpad software.

[1] = CHO cells, human 5-HT4 receptor, luciferase reporter
[2] = CHO cells, human 5-HT4 receptor, luciferase reporter, read-out: Emax

T1 sequence (Q13639 whole entry): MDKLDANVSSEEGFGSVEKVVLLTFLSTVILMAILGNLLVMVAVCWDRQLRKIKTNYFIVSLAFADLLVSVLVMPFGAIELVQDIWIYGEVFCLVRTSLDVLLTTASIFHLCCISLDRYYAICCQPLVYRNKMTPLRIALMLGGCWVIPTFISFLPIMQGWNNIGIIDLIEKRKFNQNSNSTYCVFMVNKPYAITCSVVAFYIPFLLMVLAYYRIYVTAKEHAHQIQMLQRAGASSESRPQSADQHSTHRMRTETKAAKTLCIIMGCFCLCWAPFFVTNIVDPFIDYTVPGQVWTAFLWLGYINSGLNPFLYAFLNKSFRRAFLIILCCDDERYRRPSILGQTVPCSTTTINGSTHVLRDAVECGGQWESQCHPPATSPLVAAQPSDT

Structure (SMILES) | EC50 [1] | Emax [2] | Emax
CC(C)(F)CN1CCC(F)(CNC(=O)c2cc(Cl)c(N)c3cccnc23)CC1 [Example 48, 5-Amino-6-chloro-N-{[4-fluoro-1-(2-fluoro-2-methylpropyl)-4-piperidinyl]methyl} quinoline-8-carboxamide] | 8.9 nM | 84% | 
COCCCN1CC2C(CNC(=O)c3cc(Cl)c(N)c4cccnc34)C2C1 (stereo not drawn) [Example 54, 5-Amino-6-chloro-N-{[3-(3-methoxypropyl)-3-azabicyclo[3.1.0]hex-6-yl]methyl}quinoline-8-carboxamide L(+)-tartarate] | 0.7 nM |  | 70%
COCC(C)(C)CN1CCC(CNC(=O)c2cc(Cl)c(N)c3cccnc23)CC1 [Example 55, 5-Amino-6-chloro-N-{[1-(3-methoxy-2,2-dimethylpropyl)-4-piperidinyl]methyl}quinoline-8-carboxamide L(+)-tartarate] | 0.09 nM |  | 72%

The next lines start with results.

EC50 [1] | Emax [2] | Structure (SMILES) | Emax
0.1 nM | 58% | CC(C)(F)CN1CCC(CNC(=O)c2cc(Cl)c(N)c3cccnc23)CC1 [Example 46, 5-Amino-6-chloro-N-{[1-(2-fluoro-2-methylpropyl)-4-piperidinyl]methyl}quinoline-8-carboxamide] | 
1.7 nM | 72% | Nc1c(Cl)cc(C(=O)NCC2C3CN(CCO)CC23)c2ncccc12 (stereo not shown) [Example 50, 5-Amino-6-chloro-N-{[3-(2-hydroxyethyl)-3-azabicyclo[3.1.0]hex-6-yl]methyl} quinoline-8-carboxamide] | 
1.4 nM | 85% | Nc1c(Cl)cc(C(=O)NCC2C3CN(CCCO)CC23)c2ncccc12 (stereo not shown) [Example 51, 5-Amino-6-chloro-N-{[3-(3-hydroxypropyl)-3-azabicyclo[3.1.0]hex-6-yl]methyl} quinoline-8-carboxamide] | 
0.41 nM | 63% | Nc1c(Cl)cc(C(=O)NCC2CCN(CCF)CC2)c2ncccc12 [Example 52, 5-Amino-6-chloro-N-{[1-(2-fluoroethyl)-4-piperidinyl]methyl}quinoline-8-carboxamide] | 
4.5 nM | 65% | Nc1c(Cl)cc(C(=O)NCC2C3CN(CCF)CC23)c2ncccc12 (stereo not shown) [Example 53] | 
